We go through four molecules from publication PMC11206507, “Unraveling the Impact of Six Pentacyclic Triterpenes Regulating Metabolic Pathways on Lung Carcinoma Cells” (Pharmaceuticals, 2024).

The test system of data set [1] is A549 cells. The experiment in a line: Externalization of phosphatidylserine, Annexin V confocal microscopy. The class given is cell-based, human. Conditions: A549, IC25, 24 h. As for the experimental part: Early apoptotic activity was evaluated by the externalization of PS using the Alexa Fluor® 488 Annexin V Apoptosis Reagent (Molecular Probes™) and NucBlue ReadyProbes Reagent™ (Thermo Fisher Scientific). For this assay, A549 cells were seeded in 8-well cover slip plates with a density of 1 × 10^5 cells/mL for 24 h in supplemented DMEM. Then, the A549 cells were incubated with the triterpenes (IC25) and controls for 24 h. Afterward, the cells were washed with 1× PBS and incubated with NucBlue (DAPI analog) and Annexin V for 15 min in the dark. The cells were fixed with 3.7% formaldehyde solution for 15 min, washed three times with 1× PBS, and covered with glycerol before visualization. The plates were observed by confocal microscopy using a Nikon Eclipse Ti microscope (Nikon Instruments Inc., El Segundo, CA, USA), utilizing a 20× oil objective with filter sets compatible with DAPI (Ex/Em = 405/460 nm) and Annexin V Alexa Fluor (Ex/Em = 488/525 nm). The fluorescence intensity was analyzed using the NIS-Elements Viewer program (version 5.21 64-bit) (Nikon Instruments Inc.). Each sample was analyzed in duplicate in two independent experiments. The fluorescence intensity was adjusted using untreated cells for each fluorescence channel (green and blue). Subsequently, this calibrated intensity was applied for the analysis of all treated cells.

A short description of data set [2]: MTS/PMS cell viability, MRC5. Type of data set: cell-based. The following applies: human, MRC5 normal lung fibroblast cells. How it is done:
The 50% inhibitory concentration (IC50) of some of these triterpenes in A549 NSCLC cells were previously determined by us. A similar procedure was performed to determine the IC50 of the triterpenes in a normal lung fibroblast cell line (MRC5). In brief, the A549 and MRC5 cells were seeded into 96-well plates at a density of 1 × 10^5 cells/mL in supplemented DMEM medium. The cells were treated with specific concentrations (A549: 5, 10, 25, 50, 75, 100, 125,150, 175, 200 μM; MRC5: 5, 10, 25, 50, 75, 100 μM) of the triterpenes and incubated for 24 h. Then, 10 uL of the MTS reagent from the CellTiter 96® Aqueous Non-Radioactive Cell Proliferation Assay (Promega G5421) was added to each well. Then, we incubated the plates at 37 °C and in a 5% CO2 atmosphere for 1 h. After incubation, the absorbance was measured at 492 nm (n = 8) in a microplate reader spectrophotometer (Thermoscientific Multiskan FC). The cell viability was calculated as follows:% Viability = (sample absorbance − sample media absorbance)/(untreated cells’ absorbance − untreated cells’ media absorbance) × 100
The cell viability data were presented by plotting the values with an average of eight measurements for each treatment (mean ± SD) in at least three independent experiments. The IC50 values were calculated with the GraphPad Prism 9 software (Prism 9; GraphPad by Dotmatics, San Diego, CA, USA) using the dose–response curve. The data were normalized by the non-linear fit of the log (drug inhibition) vs. normalized response variable slope to obtain the best fit IC50 and R-squared values.

Data set [3] concerns NSCLC A549 cells. Set-up: method as in PMID 31338398. The following applies: 24 h, MTS/PMS; already obtained by the authors; cited from earlier work.
The test system of data set [4] is MAPK/PI3K. The data set can be described thus: MAPK/PI3K protein expression (dual pathway activation kit, flow cytometry). For MAPK/PI3K inhibition: key: '✔' means induction; '-' means non-induction of any of the tested processes. The class given is cell-based, human. The following applies: for MAPK/PI3K expression (in words): A549, IC25, 24 h, vs untreated cells; for MAPK/PI3K inhibition: summary, NSCLC A549 cells. How it is done: We used flow cytometry to analyze several cellular mechanistic pathways in A549 cells after incubation with the triterpenes. In general, the cells were seeded in a 6-well plate at a density of 1 × 10^6 cells/mL and incubated for 24 h in supplemented DMEM. After 24 h, the A549 cells were treated with the triterpenes, following each manufacturer’s protocol. All of the following experiments were performed in a Muse® Cell Analyzer (EMD Millipore Corporation, Temecula, CA). The instrument was calibrated before each assay using the Muse® System Check Kit (Luminex MCH100101, Luminex Corporation). Each assay was run at least in two independent experiments. For each experiment, all samples were analyzed in triplicate in the instrument and the capillary line was washed after each sample run to avoid artifacts. In addition, to address the issue of cell doublets, we used the Muse® Cell Dispersal Reagent (Luminex Corporation) in all experiments. The concentration of the triterpenes in each assay was selected depending on the cellular concentration necessary to generate the gain signal in the instrument. This means that we attempted to select concentrations avoiding excessive cytotoxicity to accurately determine the respective signal from each assay.
The Muse® P13K/MAPK Dual Pathway Activation Kit (Luminex MCH200108, Luminex Corporation) was used to determine MAPK/PI3K expression. After the incubation treatment with the triterpenes (IC25) for 24 h, the A549 cells were scraped, centrifuged, and washed once with 1× PBS. Next, the fixation buffer was incubated for 10 min and then the permeabilization buffer for another 10 min. Both incubations were performed on ice. Later, the antibody cocktail containing anti-phospho-Akt and anti-phospho-ERK1/2 was incubated for 30 min. Afterward, the cell pellet was washed and suspended in fresh assay buffer for measurement.

Data set [5] concerns caspase 3. The data set can be described thus: Caspase 3 activity assay (Apo-ONE Caspase-3/7). Type of data set: cell-based, human. The following applies: for Caspase 3 activation (in words): A549, IC50, 24 h, vs untreated cells and CisPt. As for the experimental part: The intrinsic apoptosis activity was evaluated by the quantification of caspase 3 enzymatic activity using the Apo-ONE® Homogeneous Caspase-3/7 Assay (Promega G7792). A549 cells were seeded in a concentration of 1 × 10^5 cells/mL into black 96-well plates with a clear bottom. […] After the completion of the incubation, 50 μL of Apo-ONE® Caspase-3/7 Reagent (1:100 rhodamine 110 bis-(N-CBZ-l-aspartyl-l-glutamyl-l-valyl-aspartic acid amide) (Z-DEVD-R110) substrate diluted in lysis buffer) was added to each well. The plate was gently mixed using a plate shaker at 150 rpm for 2 h at room temperature. Then, the fluorescence of each well was measured (Ex/Em = 485/530 nm) in the Tecan® M200 plate reader.
The caspase 3 activity experiments were performed in triplicate. All data were expressed by plotting the values with an average of three measurements for each treatment condition as the mean ± SD and analyzed with the software GraphPad Prism 9 (San Diego, CA, USA). Statistical analysis was performed using one-way analysis of variance (ANOVA) to compare the mean value of each type of treated cells versus the control (untreated cells). The statistical significance defined by the software for p values was **** < 0.0001, *** from 0.001 to 0.0001, ** from 0.001 to 0.01, * from 0.01 to 0.05, and non-significant (ns) ≥ 0.05.

Entries after “also recorded” stand apart in the source; their conditions may differ.

For the molecule `C=C(C)[C@@H]1CC[C@]2(C(=O)O)CC[C@]3(C)[C@H](CC[C@@H]4[C@@]5(C)CC[C@H](O)C(C)(C)[C@@H]5CC[C@]43C)[C@@H]12` [BeA, betulinic acid], the “Early apoptosis, externalization of PS (in words, qualitative)” value (shortened to “Early apoptosis, externalization of PS”) in data set [1] is “lowest”. The same molecule yielded an IC50 at 24 h in data set [2] of 19 ± 0.4 µM. Further, the IC50 in data set [3] is 15 ± 0.7 µM. In data set [4], the “MAPK/PI3K expression (in words)” value was “did not affect the expression of MAPK/PI3K” and the MAPK/PI3K inhibition result is “-”.
For the molecule `C=C(C)[C@@H]1CC[C@]2(CO)CC[C@]3(C)[C@H](CC[C@@H]4[C@@]5(C)CC[C@H](O)C(C)(C)[C@@H]5CC[C@]43C)[C@@H]12` [Betu, betulin], the “Early apoptosis, externalization of PS” value in data set [1] is reported as “strongest activation”. The molecule further came in with an IC50 at 24 h in data set [2] of 16 ± 0.5 µM. Moreover, the “Caspase 3 activation (in words)” value in data set [5] was “higher caspase 3 activation than CisPt”. In addition, in data set [4], the “MAPK/PI3K expression (in words)” value is recorded as “slightly inhibit the total expression of MAPK/PI3K”.
Regarding `C=C(C)[C@@H]1CC[C@]2(C)CC[C@]3(C)[C@H](CC[C@@H]4[C@@]5(C)CC[C@H](O)C(C)(C)[C@@H]5CC[C@]43C)[C@@H]12` [Lupe, lupeol], the “Early apoptosis, externalization of PS” value in data set [1] is “lowest”. This molecule also displayed an IC50 at 24 h in data set [2] of 101 ± 8 µM. Also, the IC50 in data set [3] is 80 ± 6 µM. Besides, the “Caspase 3 activation” value in data set [5] (summary, NSCLC A549 cells) is on record as “-”. Besides, in data set [4], the “MAPK/PI3K expression (in words)” value is reported as “did not affect the expression of MAPK/PI3K” and the MAPK/PI3K inhibition result is on record as “-”.
Turning to `C[C@H]1[C@H](C)CC[C@]2(C(=O)O)CC[C@]3(C)C(=CC[C@@H]4[C@@]5(C)CC[C@H](O)C(C)(C)[C@@H]5CC[C@]43C)[C@H]12` [UrA, ursolic acid], the “Early apoptosis, externalization of PS” value in data set [1] was “strongest activation”. It took 13 ± 1 µM to reach half-maximal inhibition in data set [2] (IC50 at 24 h). Also, the IC50 in data set [3] was 23 ± 1 µM. The “Caspase 3 activation (in words)” value in data set [5] is “higher caspase 3 activation than CisPt; also recorded: highest”. For the same molecule, in data set [4], the “MAPK/PI3K expression (in words)” value was “induced the simultaneous expression of MAPK and PI3K”; the MAPK/PI3K inhibition entry was “-”.

Broadly, the IC50 is the concentration needed to halve the response being measured.
